The values below come from US9624215B2, “Amine derivative or salt thereof” (TOYAMA CHEMICAL CO., LTD., priority 2012, dated 2017).

In assay [1] the test system is normal human neonatal foreskin epidermal keratinocytes (NHEK-F). Briefly: Cell proliferation inhibition test. The note with it: Keratinocyte, 72 h, NHEK-F cells, three days incubation, ATPlite or CellTiterGlo, read-out: IC50 (concentration of the compound at which the cell count is reduced by 50%). It is filed as cell-based. In short, it runs like this:
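IC50 is the compound level halving cell count relative to untreated wells, with counts from ATP-based luminescence (ATPlite or CellTiterGlo). Readout followed 3 days of compound exposure of overnight-attached neonatal foreskin keratinocytes (2×10^3/well, Humedia-EG2 medium).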
(Cellular ATP, detected with luciferase, serves as a proxy for viable cell number.)

Assay [2] has as its system TNFα production in LPS-stimulated Raw264.7 cells. Briefly: TNFα production inhibition test. It is filed as cell-based. Conditions: Mus musculus, test compound 1 μmol/L, LPS 1 μg/mL, 16 hours, ELISA, read-out: Inhibition rate of TNFα production. The procedure:
7×10^4 mouse macrophage-derived cell line Raw264.7 cells were suspended in 100 μL of RPMI1640 medium containing 10% fetal bovine serum, plated in a 96-well plate and incubated overnight. The culture supernatant was removed and the test compound diluted in RPMI1640 medium containing 1% fetal bovine serum (final concentration: 1 μmol/L) was added. One hour after the addition, LPS (B4:0111) (Sigma-Aldrich, L2630) was added to a final concentration of 1 μg/mL. 16 hours after the stimulation, the culture supernatant was collected and the amount of TNFα produced in the culture supernatant was determined using ELISA kit (R&D Systems, MTA00B).
The inhibition rate was calculated from the following formula. Inhibition rate (%)=100−(amount of TNFα produced in the presence of test compound/amount of TNFα produced in the absence of test compound)×100
A general note: An ELISA detects its analyte on a solid surface through an enzyme-linked reagent.

Assay [3] concerns TPA-induced ear edema and acanthosis in Balb/c mice. Briefly: Mouse TPA-induced ear-swelling model. Conditions: topical, 240 h, 1% w/v solution, 20 μL applied to ear once a day from day 0 to day 9, female Balb/c mice, read-out: Inhibition rate of change in ear thickness on day 10. It is filed as in vivo. The gist of the method:
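Female Balb/c mice, 7 weeks old; 20 ng/mL TPA in 5% DMSO/acetone applied to outer ear on days 0, 2, 4, 7, 9. Test compound at 1% w/v topically once daily days 0-9, vehicle control. Inhibition rate from day 10 minus day 0 ear-thickness change versus control.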

Structures are written as SMILES.

On to `O=C(O)c1cc(C2CC2)ccc1Nc1ccc2c(cnn2Cc2ccccc2)c1` [Example 29, 2-((1-benzyl-1H-indazol-5-yl)amino)-5-cyclopropylbenzoic acid], for which, in assay [1], the IC50 was ≤ 10 nM. Further, the inhibition at 1 µM in assay [2] was ≥ 50%. The inhibition in vivo at 1 % strength in assay [3] was ≥ 20%.
`O=C(O)c1cc(C(F)(F)F)ccc1Nc1ccc2c(ccn2Cc2ccccc2)c1` [Example 32, 2-((1-benzyl-1H-indol-5-yl)amino)-5-(trifluoromethyl)benzoic acid]: the IC50 in assay [1] was ≤ 10 nM. Also, the inhibition at 1 µM in assay [2] is ≥ 50%. For the same molecule, in assay [3], the inhibition in vivo at 1 % strength is ≥ 20%.
Taken in the same sequence, the figures for `O=C(O)c1cc(C2CC2)ccc1Nc1ccc2c(ccn2Cc2cccc(OCC(F)(F)F)c2)c1` [Example 35, 5-cyclopropyl-2-((1-(3-(2,2,2-trifluoroethoxyl)benzyl)-1H-indol-5-yl)amino)benzoic acid] were ≤ 10 nM, ≥ 50% and ≥ 20%.
For `O=C(O)c1cc(C2CC2)cnc1Nc1ccc2c(ccn2Cc2ccccc2)c1` [Example 37, 2-((1-benzyl-1H-indol-5-yl)amino)-5-cyclopropylnicotinic acid], in that order: ≤ 10 nM, ≥ 50% and ≥ 20%.
Taken in the same sequence, the figures for `O=C(O)c1cc(C2CC2)cnc1Nc1ccc2c(ccn2-c2ccccc2)c1` [Example 39, 5-cyclopropyl-2-((1-phenyl-1H-indol-5-yl)amino)nicotinic acid] were ≤ 10 nM, ≥ 50% and ≥ 20%.
Turning to `O=C(O)c1nc(C2CC2)cnc1Nc1ccc2c(ccn2Cc2ccccc2)c1` [Example 71, 3-((1-benzyl-1H-indol-5-yl)amino)-6-cyclopropylpyrazine-2-carboxylic acid], the IC50 in assay [1] was ≤ 10 nM. Besides, the inhibition at 1 µM in assay [2] was ≥ 50%. Also, the inhibition in vivo at 1 % strength in assay [3] was ≥ 20%.
Taken in the same sequence, the figures for `O=C(O)c1cc(C2CC2)cnc1Nc1ccc2c(c1)sc(=O)n2Cc1ccccc1` [Example 75, 2-((3-benzyl-2-oxo-2,3-dihydrobenzo[d]thiazol-6-yl)amino)-5-cyclopropylnicotinic acid] were ≤ 10 nM, ≥ 50% and ≥ 20%.
Turning to `O=C(O)c1cc(Cl)cnc1Nc1ccc2c(ccn2Cc2ccccc2)c1` [Example 90, 2-((1-benzyl-1H-indol-5-yl)amino)-5-chloronicotinic acid], the IC50 in assay [1] was 10 to 100 nM. Further, the inhibition at 1 µM in assay [2] is ≥ 50%. Moreover, in assay [3], the inhibition in vivo at 1 % strength was ≥ 20%.
For `O=C(O)c1cc(C2CC2)ccc1Nc1ccc2c(ccn2Cc2ccccc2)c1` [Example 94, 2-((1-benzyl-1H-indol-5-yl)amino)-5-cyclopropylbenzoic acid], the IC50 in assay [1] is ≤ 10 nM. Moreover, the inhibition at 1 µM in assay [2] is ≥ 50%. Also, the inhibition in vivo at 1 % strength in assay [3] is ≥ 20%.
For `O=C(O)c1cc(Cl)ccc1Nc1cccc2c1ccn2-c1ccccc1` [Example 275, 5-chloro-2-((1-phenyl-1H-indol-4-yl)amino)benzoic acid], in that order: ≤ 10 nM, ≥ 50% and ≥ 20%.
With `O=C(O)c1cc(Cl)cnc1Nc1ccc2c(ccn2Cc2cccc(OCC(F)(F)F)c2)c1` [Example 357, 5-chloro-2-((1-(3-(2,2,2-trifluoroethoxyl)benzyl)-1H-indol-5-yl)amino)nicotinic acid], the IC50 in assay [1] was in the range of 10 to 100 nM. Moreover, in assay [2], the inhibition at 1 µM was ≥ 50%.
Taken in the same sequence, the figures for `O=C(O)c1cc(Cl)cnc1Nc1ccc2c(ccn2Cc2cccc(OC(F)(F)F)c2)c1` [Example 361, 5-chloro-2-((1-(3-(trifluoromethoxy)benzyl)-1H-indol-5-yl)amino)nicotinic acid] were 10 to 100 nM and ≥ 50%.
For `O=C(O)c1cc(Cl)ccc1Nc1ccc2c(ccn2Cc2cccc(OC(F)(F)F)c2)c1` [Example 363, 5-chloro-2-((1-(3-(trifluoromethoxy)benzyl)-1H-indol-5-yl)amino)benzoic acid], in that order: ≤ 10 nM and ≥ 50%.
As for `COc1ccc(-n2ccc3cc(Nc4ccc(C5CC5)cc4C(=O)O)ccc32)cc1` [Example 373, 5-cyclopropyl-2-((1-(4-methoxyphenyl)-1H-indol-5-yl)amino)benzoic acid], in assay [1], the IC50 is ≤ 10 nM. In assay [2], the inhibition at 1 µM is ≥ 50%.
As for `O=C(O)c1cc(C2CC2)ccc1Nc1ccc2c(ccn2-c2ccc(C(F)(F)F)cc2)c1` [Example 375, 5-cyclopropyl-2-((1-(4-(trifluoromethyl)phenyl)-1H-indol-5-yl)amino)benzoic acid], the IC50 in assay [1] was ≤ 10 nM. In assay [2], the inhibition at 1 µM was ≥ 50%.

As a reminder, the inhibition is how much of the control response was suppressed.
